{"source": "patent US20030108620A1", "about": "“Pharmaceutical composition comprising a physiologically acceptable vanadium compound, salt or complex and at least a component selected from a na+/hinhibitors, cyclo-oxygenase inhibitors and caspase inhibitors” (priority 1999, published 2003)", "key": {"swine myocardium": {"tested_on": "swine myocardium", "settings": "also when administered after the onset of ischaemia; cited from earlier work"}, "[1]": {"tested_on": "hearts of phenobarbital anaesthetized rats", "assay": "Infarcted area after 60 minutes coronary artery occlusion and 180 minutes of reperfusion in anaesthetized rats", "format": "in vivo, rat", "settings": "for LA/AR ratio: normothermia (36.5-37.5° C.), mean±standard error margin, n=6, P<0.001, pretreated 25 minutes prior to CAO; for IA (% AR) / % Reduction: rat, 60 min CAO and 180 min reperfusion; for IA (% AR): i.v. bolus 25 minutes prior to CAO, BMOV 3.3 mg/kg, DMA 3.0 mg/kg; for % Reduction: reduction of IA (% AR) versus control", "experimental": "Area at risk (AR) and infarcted area (IA) were determined in hearts of phenobarbital anaesthetized rats after 60 minutes coronary artery occlusion (CAO) and 180 minutes of reperfusion. […] The mean AR expressed as percentage of the left ventricle was not different between the control and the experimental group."}, "deep burn wounds, dermis": {"tested_on": "deep burn wounds, dermis", "assay": "Deep burn wound model in the Yorkshire pig, preservation of the dermis", "format": "in vivo, Yorkshire White", "settings": "intravenously in a single dose; for % Preservation of dermis: equal dose in g/kg bodyweight", "description": "The Yorkshire pig has been chosen as the experimental animal because of all animal species this domestic pig seems to be the one with morphological and functional skin characteristics nearest to human skin and so best fulfils the requirements of a model for human skin. In basic architecture it resembles human skin in the relative thickness of the epidermis and dermis, the presence of epidermal ridges, a distinct dermal papillary layer and a deep layer of subdermal fat. Compared to human the elastic fibre content of porcine dermis is relatively low, but higher than in any other species. […] Studies on the proliferation rate of porcine epidermis show parallels with those of humans. The keratinous proteins are similar. Unlike the skin of rodents, the follicular pattern in pigs and humans is relatively sparse and arranged as single hairs or in groups of two or three follicles. […] The regulation of body temperature by the skin is more evident in humans than in the pig. In the skin of the pig no eccrine glands are found. It does have apocrine glands, but their role in thermoregulation remains debatable. The vascular anatomy of pig skin consists of a three layered network; lower, mid-dermal and sub epidermal. The size, orientation and distribution of the vessels are strikingly similar to human skin, but it does differ from humans in that the sub epidermal network is less dense. The vascularisation of the lower region of the follicle corresponds to that in humans. The healing of deep dermal bums, which depends on this phenomenon, might also be analogous. Studies on the thermal properties of porcine skin as a function of depth have been performed by measuring the tissue water content.\nProtocol 1a: Twelve identical deep burn wounds were inflicted in each animal. The animal model used is developed in the Burn Research Institute (Beverwijk, The Netherlands) and is a standard for all of the experimental burn wound research. The model is also accepted by the animal experimental commission of the University of Amsterdam.\nProtocol 1b: Six biopsies of 6 mm of the burned area were taken from each big and transferred to a non-burned area. Six biopsies of 6 mm of the non-burned area were be taken from each pig and transferred to a burned area. (Determination of the indirect injury) Animals: pig, Yorkshire White, female, +/− 30 kg. […]"}}}
{"smiles": "CS(=O)(=O)O.CS(=O)(=O)c1cc(C(=O)NC(=N)N)ccc1N1CCCCC1", "note": "[HOE 694, (3-methylsulfonyl-4-piperidinobenzoyl)-guanidine methanesulfonate]", "values": [{"measurement": "infarct size", "setting": "swine myocardium", "result": "substantial reduction of the infarct size"}]}
{"smiles": "Cc1occc(=O)c1[O-].Cc1occc(=O)c1[O-].[O]=[V+2]", "note": "[BMOV, bis(maltolato)oxovanadium(IV)]", "values": [{"measurement": "LA/AR ratio", "setting": "[1]", "result": "45±3", "unit": "%"}, {"measurement": "IA (% AR)", "setting": "[1]", "result": 45, "unit": "% AR"}, {"measurement": "% Reduction", "setting": "[1]", "result": 36, "unit": "%"}, {"measurement": "protection of structures in the dermis (deep vascular plexus, hair-adnexes, sweat glands)", "setting": "deep burn wounds, dermis", "result": "protected"}, {"measurement": "% Preservation of dermis", "setting": "deep burn wounds, dermis", "result": "40-50%"}]}
{"smiles": "CN(C)c1nc(N)c(C(=O)N=C(N)N)nc1Cl", "note": "[DMA, dimethylamiloride]", "values": [{"measurement": "LA/AR ratio", "setting": "[1]", "result": "45±3", "unit": "%"}, {"measurement": "IA (% AR)", "setting": "[1]", "result": 55, "unit": "% AR"}, {"measurement": "% Reduction", "setting": "[1]", "result": 21, "unit": "%"}, {"measurement": "protection of structures in the dermis (deep vascular plexus, hair-adnexes, sweat glands)", "setting": "deep burn wounds, dermis", "result": "protected"}, {"measurement": "% Preservation of dermis", "setting": "deep burn wounds, dermis", "result": 20, "unit": "%"}]}
